Reference: BigSolDB 2.1

Cc1c([N+](=O)[O-])c(C)c([N+](=O)[O-])c(C(C)(C)C)c1[N+](=O)[O-]
solubility (mole fraction)
Conditions	in DMAc	in THF	in cyclohexane	in ethanol	in ethyl acetate	in isopropanol	in methanol	in n-butanol	in n-heptane	in n-hexane
278.15 K	0.0918	0.0786	0.00467	0.00168	0.0953	0.00128	0.00185	0.00245	0.00262	0.00225
283.15 K	0.112	0.0889	0.00588	0.00207	0.115	0.00165	0.00234	0.00308	0.00321	0.00284
288.15 K	0.134	0.1	0.00739	0.00254	0.136	0.00211	0.00295	0.00374	0.00402	0.00359
293.15 K	0.156	0.112	0.00925	0.00311	0.158	0.00269	0.00369	0.0045	0.00496	0.00437
298.15 K	0.179	0.126	0.0116	0.00378	0.182	0.00343	0.00459	0.00553	0.00609	0.00557
303.15 K	0.205	0.139	0.0145	0.00458	0.207	0.00437	0.00569	0.00666	0.00752	0.00685
308.15 K	0.232	0.156	0.0182	0.00552	0.233	0.00557	0.00704	0.00806	0.00931	0.00842
313.15 K	0.263	0.173	0.0229	0.00663	0.262	0.00713	0.00868	0.00974	0.0114	0.0104
